Data: patent US6946469B2, “Cyanamide, alkoxyamino, and urea derivatives of 4,4-disubstituted-3,4-dihydro-2(1H)-quinazolinones as HIV reverse transcriptase inhibitors” (Bristol-Myers Squibb Pharma Company, priority 2001, dated 2005)
In brackets after ≈: the same amount, converted by molar mass.

System: HIV-1 (RF)
Assay: HIV RNA assay: microplate based compound evaluation in HIV-1 infected MT-2 cells
Format: cell-based
Conditions: Human immunodeficiency virus 1, MT2, 72 h; HIV-1 (RF) infected MT-2 cells, 3 days of culture; virus dilution selected to give this value (inoculum standardisation); read-out: IC90 value (concentration of compound required to reduce the HIV RNA level by 90%)
Protocol: MT-2 and MT-4 cells were maintained in RPMI 1640 supplemented with 5% fetal calf serum (FCS) for MT-2 cells or 10% FCS for MT-4 cells, 2 mM L-glutamine and 50 μg/mL gentamycin, all from Gibco. HIV-1 RF was propagated in MT-4 cells in the same medium. Virus stocks were prepared approximately 10 days after acute infection of MT-4 cells and stored as aliquots at −70° C. Infectious titers of HIV-1 (RF) stocks were 1-3×10^7 PFU (plaque forming units)/mL as measured by plaque assay on MT-2 cells (see below). Each aliquot of virus stock used for infection was thawed only once.
For evaluation of antiviral efficacy, cells to be infected were subcultured one day prior to infection. […]
Cell lysates or purified RNA in 3 M or 5 M GED were mixed with 5 M GED and capture probe to a final guanidinium isothiocyanate concentration of 3 M and a final biotin oligonucleotide concentration of 30 nM. […] Immobilized alkaline phosphatase activity was detected by addition of 100 μL of 0.2 mM 4-methylumbelliferyl phosphate (MUBP, JBL Scientific) in buffer δ(2.5 M diethanolamine pH 8.9 (JBL Scientific), 10 mM MgCl2, 5 mM zinc acetate dihydrate and 5 mM N-hydroxyethyl-ethylene-diamine-triacetic acid). […] Fluorescence at […] was measured using a microplate fluorometer (Dynateck) exciting at […]. […]

- IC90: 0.2 µg/mL (≈ 0.947 µM)
Compound: Nc1ccn([C@H]2CC[C@@H](CO)O2)c(=O)n1 [ddC, 2′,3′-dideoxycytidine]
